Results from US9302991B2, “Arylamide derivatives as TTX-S blockers” (RaQualia Pharma Inc., priority 2010, dated 2016).

Key:
human Nav1.7 channels = target: T1, human Nav1.7 channels (Homo sapiens, UniProt Q15858); test: FRET assay, human Nav1.7 (EFS on FDSS); type: cell-based; settings: CHO cells expressing human Nav1.7, read-out: IC50 against Nav1.7
T1 construct: expressed in transfected cells; host or cells: CHO
In short: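 CHO cells stably expressing the channel, loaded with CC2-DMPE (10 µM) then DiSBAC2(3) (15 µM) plus VABSC-1, in HEPES-buffered saline pH 7.4 at room temperature. Electrical field stimulation on FDSS; FRET ratio at 440 nm fitted for IC50.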

human Nav1.3 channels = target: T2, human Nav1.3 channels (Homo sapiens, UniProt Q9NY46); test: FRET assay, human Nav1.3 (EFS on FDSS); type: cell-based; settings: HEK293 cells expressing human Nav1.3, read-out: IC50 against Nav1.3
T2 construct: expressed in transfected cells; host or cells: HEK293
T2 sequence (Q9NY46 whole entry): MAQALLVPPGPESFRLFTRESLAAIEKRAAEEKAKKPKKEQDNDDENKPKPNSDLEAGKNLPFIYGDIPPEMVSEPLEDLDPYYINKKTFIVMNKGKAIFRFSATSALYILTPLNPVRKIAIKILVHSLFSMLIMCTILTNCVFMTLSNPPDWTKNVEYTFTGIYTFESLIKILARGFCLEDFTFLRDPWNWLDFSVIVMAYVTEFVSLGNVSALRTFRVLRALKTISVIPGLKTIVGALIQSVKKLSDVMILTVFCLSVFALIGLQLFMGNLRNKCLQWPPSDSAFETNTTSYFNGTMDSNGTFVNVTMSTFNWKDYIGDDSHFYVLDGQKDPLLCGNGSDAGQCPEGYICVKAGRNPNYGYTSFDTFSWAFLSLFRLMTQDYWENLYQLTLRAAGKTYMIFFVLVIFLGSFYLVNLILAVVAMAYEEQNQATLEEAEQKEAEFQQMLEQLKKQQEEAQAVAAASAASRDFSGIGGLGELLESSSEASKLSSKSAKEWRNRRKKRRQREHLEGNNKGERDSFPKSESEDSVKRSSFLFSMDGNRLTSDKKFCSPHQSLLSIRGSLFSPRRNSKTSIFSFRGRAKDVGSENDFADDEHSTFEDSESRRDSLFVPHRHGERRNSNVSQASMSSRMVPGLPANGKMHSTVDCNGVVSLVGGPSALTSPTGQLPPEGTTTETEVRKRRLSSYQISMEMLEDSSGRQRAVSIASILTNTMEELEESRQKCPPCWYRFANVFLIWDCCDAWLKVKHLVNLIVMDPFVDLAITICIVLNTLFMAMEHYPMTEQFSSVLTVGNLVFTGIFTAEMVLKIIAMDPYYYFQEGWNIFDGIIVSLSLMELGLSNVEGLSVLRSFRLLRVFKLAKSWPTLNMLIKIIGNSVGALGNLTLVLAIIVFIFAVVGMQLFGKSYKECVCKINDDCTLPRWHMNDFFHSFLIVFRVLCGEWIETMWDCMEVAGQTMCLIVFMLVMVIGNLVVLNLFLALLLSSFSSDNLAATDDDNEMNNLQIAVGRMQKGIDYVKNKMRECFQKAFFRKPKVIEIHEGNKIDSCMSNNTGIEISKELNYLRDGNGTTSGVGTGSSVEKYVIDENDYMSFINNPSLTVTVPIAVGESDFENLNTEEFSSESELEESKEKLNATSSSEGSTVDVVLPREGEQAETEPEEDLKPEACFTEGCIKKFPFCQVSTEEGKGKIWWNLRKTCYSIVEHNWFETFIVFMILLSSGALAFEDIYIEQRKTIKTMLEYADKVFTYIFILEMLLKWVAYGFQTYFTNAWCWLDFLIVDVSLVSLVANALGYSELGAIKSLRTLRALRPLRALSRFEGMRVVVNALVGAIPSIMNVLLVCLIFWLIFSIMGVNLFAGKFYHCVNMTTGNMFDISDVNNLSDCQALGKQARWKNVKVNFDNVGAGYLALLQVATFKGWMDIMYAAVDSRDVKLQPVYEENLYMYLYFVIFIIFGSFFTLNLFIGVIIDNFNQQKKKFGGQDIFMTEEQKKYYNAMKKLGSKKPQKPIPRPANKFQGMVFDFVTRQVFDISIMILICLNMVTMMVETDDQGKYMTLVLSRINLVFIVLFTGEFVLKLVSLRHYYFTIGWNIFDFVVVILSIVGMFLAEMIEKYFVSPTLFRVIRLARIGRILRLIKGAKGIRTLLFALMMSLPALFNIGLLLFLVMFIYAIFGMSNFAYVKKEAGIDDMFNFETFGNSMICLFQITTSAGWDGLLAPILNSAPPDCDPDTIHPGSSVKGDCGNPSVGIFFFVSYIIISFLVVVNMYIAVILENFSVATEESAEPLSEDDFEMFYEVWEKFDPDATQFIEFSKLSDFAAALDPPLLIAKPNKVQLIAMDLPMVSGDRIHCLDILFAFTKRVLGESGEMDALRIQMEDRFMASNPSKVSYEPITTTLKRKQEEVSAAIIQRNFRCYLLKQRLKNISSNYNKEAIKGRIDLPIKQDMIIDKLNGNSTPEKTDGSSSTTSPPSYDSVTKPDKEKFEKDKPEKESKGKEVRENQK
In short: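 HEK293 cells expressing the channel, loaded with 10 microM CC2-DMPE then 15 microM DiSBAC2(3) plus 0.555 mM VABSC-1 in pH 7.4 HEPES buffer at room temperature. Membrane potential changes evoked by electrical field stimulation after compound addition; IC50 from 440 nm-normalized FRET ratios.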

T1 sequence (Q15858 whole entry): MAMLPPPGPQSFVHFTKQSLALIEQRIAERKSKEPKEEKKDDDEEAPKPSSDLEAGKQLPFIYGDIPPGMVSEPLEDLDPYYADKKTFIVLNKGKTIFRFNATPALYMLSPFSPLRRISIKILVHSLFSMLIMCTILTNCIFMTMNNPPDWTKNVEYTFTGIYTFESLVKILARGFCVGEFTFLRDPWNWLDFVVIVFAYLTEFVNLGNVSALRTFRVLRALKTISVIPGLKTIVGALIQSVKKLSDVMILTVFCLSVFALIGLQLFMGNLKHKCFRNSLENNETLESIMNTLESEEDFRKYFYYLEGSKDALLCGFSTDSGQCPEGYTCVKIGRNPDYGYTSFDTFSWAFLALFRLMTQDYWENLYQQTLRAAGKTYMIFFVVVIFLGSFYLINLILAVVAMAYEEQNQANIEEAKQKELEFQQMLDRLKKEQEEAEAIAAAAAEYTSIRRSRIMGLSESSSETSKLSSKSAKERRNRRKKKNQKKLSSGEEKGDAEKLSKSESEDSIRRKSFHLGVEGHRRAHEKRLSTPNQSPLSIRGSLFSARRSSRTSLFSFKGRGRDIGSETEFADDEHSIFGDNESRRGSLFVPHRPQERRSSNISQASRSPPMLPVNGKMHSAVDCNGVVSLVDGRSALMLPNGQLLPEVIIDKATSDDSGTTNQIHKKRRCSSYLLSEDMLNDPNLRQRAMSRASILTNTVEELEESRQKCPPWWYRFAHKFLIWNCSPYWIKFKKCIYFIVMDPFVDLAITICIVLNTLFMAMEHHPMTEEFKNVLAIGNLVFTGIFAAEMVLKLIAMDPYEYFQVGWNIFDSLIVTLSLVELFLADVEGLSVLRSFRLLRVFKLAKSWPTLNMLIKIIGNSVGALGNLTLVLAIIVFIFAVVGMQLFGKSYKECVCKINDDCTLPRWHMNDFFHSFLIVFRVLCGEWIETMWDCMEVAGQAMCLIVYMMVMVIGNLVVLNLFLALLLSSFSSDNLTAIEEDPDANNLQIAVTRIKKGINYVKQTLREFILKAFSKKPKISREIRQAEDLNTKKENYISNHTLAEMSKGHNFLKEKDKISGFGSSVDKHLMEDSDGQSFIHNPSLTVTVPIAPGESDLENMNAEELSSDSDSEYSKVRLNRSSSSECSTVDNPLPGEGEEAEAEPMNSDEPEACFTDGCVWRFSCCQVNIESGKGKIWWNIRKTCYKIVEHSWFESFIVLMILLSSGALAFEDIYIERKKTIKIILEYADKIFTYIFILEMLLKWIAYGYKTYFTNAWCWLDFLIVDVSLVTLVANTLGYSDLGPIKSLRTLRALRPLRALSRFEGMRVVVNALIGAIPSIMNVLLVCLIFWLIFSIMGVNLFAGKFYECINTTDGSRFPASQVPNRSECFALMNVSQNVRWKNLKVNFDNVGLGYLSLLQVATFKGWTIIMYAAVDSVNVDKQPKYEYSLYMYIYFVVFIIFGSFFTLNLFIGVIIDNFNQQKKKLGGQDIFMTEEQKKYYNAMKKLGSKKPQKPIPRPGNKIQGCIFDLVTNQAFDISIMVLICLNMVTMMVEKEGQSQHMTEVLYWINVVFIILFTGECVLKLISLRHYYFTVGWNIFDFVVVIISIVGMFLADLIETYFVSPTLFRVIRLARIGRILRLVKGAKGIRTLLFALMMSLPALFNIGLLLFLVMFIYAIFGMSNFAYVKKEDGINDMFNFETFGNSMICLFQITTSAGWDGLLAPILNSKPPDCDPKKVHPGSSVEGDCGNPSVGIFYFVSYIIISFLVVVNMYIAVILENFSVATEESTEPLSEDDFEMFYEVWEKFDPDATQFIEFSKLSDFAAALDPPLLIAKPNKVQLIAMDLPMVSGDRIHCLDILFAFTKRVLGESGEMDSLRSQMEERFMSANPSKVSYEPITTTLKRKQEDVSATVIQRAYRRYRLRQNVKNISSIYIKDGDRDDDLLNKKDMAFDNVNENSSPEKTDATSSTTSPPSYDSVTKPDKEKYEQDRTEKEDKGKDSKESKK

Row | SMILES | IC50 (human Nav1.7 channels) [µM] | IC50 (human Nav1.3 channels) [µM]
1 | CCC(=O)Nc1cc(C(=O)NCc2cnc(OCC(F)(F)F)c(Cl)c2)ccn1 [Example 94, N-((5-chloro-6-(2,2,2-trifluoroethoxy)pyridin-3-yl)methyl)-2-propionamidoisonicotinamide] | < 1 | < 1
2 | CCC(=O)Nc1cc(C(=O)NCc2cccc(C(F)(F)F)c2)cc(C)n1 [Example 127, 2-methyl-6-propionamido-N-(3-(trifluoromethyl)benzyl)isonicotinamide] | < 1 | < 1
3 | CCC(=O)Nc1cc(C(=O)NCc2cc(C(F)(F)F)ccc2F)cc(C)n1 [Example 128, N-(2-fluoro-5-(trifluoromethyl)benzyl)-2-methyl-6-propionamidoisonicotinamide] | < 1 | < 1
4 | CCC(=O)Nc1cc(C(=O)NCc2cccc(OC(F)F)c2)cc(C)n1 [Example 129, N-(3-(difluoromethoxy)benzyl)-2-methyl-6-propionamidoisonicotinamide] | < 1 | < 1
5 | COc1nc(OCC(F)(F)F)ccc1CNC(=O)c1ccnc(NC(=O)C2CC2)c1 [Example 147, 2-(cyclopropanecarboxamido)-N-((2-methoxy-6-(2,2,2-trifluoroethoxy)pyridin-3-yl)methyl)isonicotinamide] | < 1 | < 1
6 | COc1nc(OCC(F)(F)F)ccc1CNC(=O)c1ccnc(NC(C)=O)c1 [Example 148, 2-acetamido-N-((2-methoxy-6-(2,2,2-trifluoroethoxy)pyridin-3-yl)methyl)isonicotinamide] | < 1 | < 1
7 | CCC(=O)Nc1cc(C(=O)NCc2ccc(OCC(F)(F)F)nc2OC)ccn1 [Example 149, N-((2-methoxy-6-(2,2,2-trifluoroethoxy)pyridin-3-yl)methyl)-2-propionamidoisonicotinamide] | < 1 | < 1
8 | CCC(=O)Nc1cc(C(=O)NCc2ccc(OCC(F)(F)F)nc2OC)cc(C)n1 [Example 150, N-((2-methoxy-6-(2,2,2-trifluoroethoxy)pyridin-3-yl)methyl)-2-methyl-6-propionamidoisonicotinamide] | < 1 | < 1
9 | O=C(NCc1ccc(OCC(F)(F)F)nc1)c1ccnc(NC(=O)C2CC2)c1 [Example 152, 2-(cyclopropanecarboxamido)-N-((6-(2,2,2-trifluoroethoxy)pyridin-3-yl)methyl)isonicotinamide] | < 1 | < 1
10 | CCC(=O)Nc1cc(C(=O)NCc2ccc(OCC(F)(F)F)nc2)cc(C)n1 [Example 153, 2-methyl-6-propionamido-N-((6-(2,2,2-trifluoroethoxy)pyridin-3-yl)methyl)isonicotinamide] | < 1 | < 1
11 | CC(C)C(=O)Nc1cc(C(=O)NCc2ccc(OCC(F)(F)F)nc2)ccn1 [Example 169, 2-isobutyramido-N-((6-(2,2,2-trifluoroethoxy)pyridin-3-yl)methyl)isonicotinamide] | < 1 | < 1
12 | COc1nc(OCC(F)(F)F)ccc1CNC(=O)c1ccnc(NC(=O)C(C)C)c1 [Example 171, 2-isobutyramido-N-((2-methoxy-6-(2,2,2-trifluoroethoxy)pyridin-3-yl)methyl)isonicotinamide] | < 1 | < 1
13 | CCC(=O)Nc1nc(C)cc(C(=O)NCc2ccc(OCC(F)(F)F)nc2OC)n1 [Example 180, N-((2-methoxy-6-(2,2,2-trifluoroethoxy)pyridin-3-yl)methyl)-6-methyl-2-propionamidopyrimidine-4-carboxamide] | < 1 | < 1
14 | COc1nc(OCC(F)(F)F)ccc1CNC(=O)c1cc(C)nc(NC(C)=O)c1 [Example 241, 2-acetamido-N-((2-methoxy-6-(2,2,2-trifluoroethoxy)pyridin-3-yl)methyl)-6-methylisonicotinamide] | < 1 | < 1
15 | CCOc1nc(OCC(F)(F)F)ccc1CNC(=O)c1cc(C)nc(NC(=O)CC)n1 [Example 359, N-((2-ethoxy-6-(2,2,2-trifluoroethoxy)pyridin-3-yl)methyl)-6-methyl-2-propionamidopyrimidine-4-carboxamide] | < 1 | < 1
16 | CCOc1nc(OCC(F)(F)F)ccc1CNC(=O)c1cc(C)nc(NC(=O)C(C)C)n1 [Example 360, N-((2-ethoxy-6-(2,2,2-trifluoroethoxy)pyridin-3-yl)methyl)-2-isobutyramido-6-methylpyrimidine-4-carboxamide] | < 1 | < 1
17 | CC(=O)Nc1nc(C)cc(C(=O)NCc2cnc(OCC(F)(F)F)c(C)c2)n1 [Example 363, 2-acetamido-6-methyl-N-((5-methyl-6-(2,2,2-trifluoroethoxy)pyridin-3-yl)methyl)pyrimidine-4-carboxamide] | < 1 | < 1
18 | CCC(=O)Nc1nc(C)cc(C(=O)NCc2cnc(OCC(F)(F)F)c(C)c2)n1 [Example 364, 6-methyl-N-((5-methyl-6-(2,2,2-trifluoroethoxy)pyridin-3-yl)methyl)-2-propionamidopyrimidine-4-carboxamide] | < 1 | < 1
19 | CCC(=O)Nc1cc(C(=O)NCc2cnc(OCC(F)(F)F)c(C)c2)ccn1 [Example 368, N-((5-methyl-6-(2,2,2-trifluoroethoxy)pyridin-3-yl)methyl)-2-propionamidoisonicotinamide] | < 1 | < 1

Now from value to compound:

Row | IC50 (human Nav1.7 channels) [µM] | IC50 (human Nav1.3 channels) [µM] | SMILES
20 | < 1 | < 1 | Cc1cc(C(C)NC(=O)c2ccnc(NC(=O)C3CC3)n2)cnc1OCC(F)(F)C(F)F (single isomer, unassigned) [Example 906, 2-(cyclopropanecarboxamido)-N-(1-(5-methyl-6-(2,2,3,3-tetrafluoropropoxy)pyridin-3-yl)ethyl)pyrimidine-4-carboxamide]
21 | < 1 | < 1 | CCC(=O)Nc1cc(C(=O)NC(C)c2cnc(OCC(F)(F)C(F)F)c(C)c2)ccn1 (single isomer, unassigned) [Example 925, N-(1-(5-methyl-6-(2,2,3,3-tetrafluoropropoxy)pyridin-3-yl)ethyl)-2-propionamidoisonicotinamide]
22 | < 1 | < 1 | Cc1cc(C(C)NC(=O)c2ccnc(NC(=O)C3CC3)c2)cnc1OCC(F)(F)C(F)F (single isomer, unassigned) [Example 926, 2-(cyclopropanecarboxamido)-N-(1-(5-methyl-6-(2,2,3,3-tetrafluoropropoxy)pyridin-3-yl)ethyl)isonicotinamide]
23 | < 1 | < 1 | CC(=O)Nc1cc(C(=O)NC(C)c2cnc(OCC(F)(F)C(F)F)c(C)c2)cc(C)n1 (single isomer, unassigned) [Example 927, 2-acetamido-6-methyl-N-(1-(5-methyl-6-(2,2,3,3-tetrafluoropropoxy)pyridin-3-yl)ethyl)isonicotinamide]
24 | < 1 | < 1 | Cc1cc(C(=O)NC(C)c2cnc(OCC(F)(F)F)c(C)c2)cc(NC(=O)CC2CC2)n1 (single isomer, unassigned) [Example 953, 2-(2-cyclopropylacetamido)-6-methyl-N-(1-(5-methyl-6-(2,2,2-trifluoroethoxy)pyridin-3-yl)ethyl)isonicotinamide]
25 | < 1 | < 1 | Cc1cc(CNC(=O)c2ccnc(NC(=O)C3CC3)c2)cnc1OCC(F)(F)F [Example 369, 2-(cyclopropanecarboxamido)-N-((5-methyl-6-(2,2,2-trifluoroethoxy)pyridin-3-yl)methyl)isonicotinamide]
26 | < 1 | < 1 | CC(=O)Nc1cc(C(=O)NCc2cnc(OCC(F)(F)F)c(C)c2)cc(C)n1 [Example 371, 2-acetamido-6-methyl-N-((5-methyl-6-(2,2,2-trifluoroethoxy)pyridin-3-yl)methyl)isonicotinamide]
27 | < 1 | < 1 | CCC(=O)Nc1cc(C(=O)NCc2cnc(OCC(F)(F)F)c(C)c2)cc(C)n1 [Example 372, 2-methyl-N-((5-methyl-6-(2,2,2-trifluoroethoxy)pyridin-3-yl)methyl)-6-propionamidoisonicotinamide]
28 | < 1 | < 1 | CCC(=O)Nc1nccc(C(=O)NCc2cnc(OCC(F)(F)F)c(Cl)c2)n1 [Example 410, N-((5-chloro-6-(2,2,2-trifluoroethoxy)pyridin-3-yl)methyl)-2-propionamidopyrimidine-4-carboxamide]
29 | < 1 | < 1 | O=C(NCc1cnc(OCC(F)(F)F)c(Cl)c1)c1ccnc(NC(=O)C2CC2)n1 [Example 411, N-((5-chloro-6-(2,2,2-trifluoroethoxy)pyridin-3-yl)methyl)-2-(cyclopropanecarboxamido)pyrimidine-4-carboxamide]
30 | < 1 | < 1 | COc1cc(CNC(=O)c2cc(C)nc(NC(=O)C(C)C)n2)cnc1OCC(F)(F)F [Example 443, 2-isobutyramido-N-((5-methoxy-6-(2,2,2-trifluoroethoxy)pyridin-3-yl)methyl)-6-methylpyrimidine-4-carboxamide]
31 | < 1 | < 1 | CCC(=O)Nc1cc(C(=O)NCc2cccc(OCC(F)(F)F)n2)cc(C)n1 [Example 467, 2-methyl-6-propionamido-N-((6-(2,2,2-trifluoroethoxy)pyridin-2-yl)methyl)isonicotinamide]
32 | < 1 | < 1 | Cc1cc(C(=O)NCc2ccc(OCC(F)(F)F)nc2)cc(NC(=O)C(C)C)n1 [Example 483, 2-isobutyramido-6-methyl-N-((6-(2,2,2-trifluoroethoxy)pyridin-3-yl)methyl)isonicotinamide]
